Measurements published in patent US20260207649A1, “LSD1 INHIBITOR AND PRMT6 INHIBITOR FOR USE IN THE TREATMENT OF A DISEASE ASSOCIATED WITH GAIN-OF-FUNCTION OF ANDROGEN RECEPTOR (AR) AND/OR WITH OVEREXPRESSION OF AN AR COACTIVATOR” (FONDAZIONE TELETHON ETS(30%), priority 2022, published 2026).

System: PRMT6
Assay: Lentiviral shRNA knock-down tested in motor-neuron cell lines
Format: cell-based
Conditions: lentiviral transduction of motor-neuron cell lines
Protocol: Transgenes to express shRNA against PRMT6 (shPRMT6 #1, SEQ ID NO: 232 and shPRMT6 #2, SEQ ID NO: 233) and the corresponding scramble were cloned into lentiviral constructs (pLKO.1-puro).
HEK293T cells were transfected by calcium phosphate with lentiviral vectors together with pCMV-dR8.91 (Delta 8.9) plasmids containing gag, pol, and rev genes and VSV-G envelope plasmid. At 16 hours post-transfection, medium was replaced with fresh medium, and 24 hours later it was collected, centrifuged at 1000×g for 10 minutes (to pellet and thus remove any cellular debris), filtered through 0.45-μm pores, and stored at −80° C. in aliquots. To quantify viruses, 10 μL of viral particles were lysed for 10 minutes at room temperature by adding an equal volume of 2× lysis buffer [0.25% Triton X-100, 50 mM KCl, 100 mM Tris-HCl pH 7.4, 40% glycerol, and 0.8 U/μL RNase inhibitor (RiboLock, Fermentas)]. Lysates were added to a single-step RT-PCR assay with 3.5 nM MS2 RNA (Roche) as template, 500 nM of each primer and hot-start Taq (Truestart Hotstart Taq, Fermentas), all in 20 mM Tris-Cl pH 8.3, 5 mM (NH4)2SO4, 20 mM KCl, 5 mM MgCl2, 0.1 mg/ml BSA, 1/20,000 SYBR Green I (Invitrogen, #S7563), and 200 µM dNTPs. […]

With “shPRMT6 #1: shRNA against PRMT6 in lentiviral construct pLKO.1-puro, caccggcauucugagcaucuu (CACCGGCAUUCUGAGCAUCUU)” the knock-down efficiency was “most efficient knock-down”.
